Test [1] has as its system HEK293. Kind of test: EBV LMP1 TES2 canonical NF-kB signalling blockers – cell-based, HEK293, luciferase, cherry-pick, dose response (AID 588343). The class given is functional. The following applies: Homo sapiens.
The test system of the next test is Vero. Kind of test: cells. The following applies: Chlorocebus sabaeus. The format is functional.
Test [2] can be described thus: Luminescence Cell-Based Dose Retest to Confirm Inhibitors of Cancer Stem Cells. [Related pubchem assays (depositor defined):AID2717, AID2721]. The format is functional. The following applies: Homo sapiens.
Test [3] deals with HEK293. Briefly: cells. The format is functional, cell-based. The following applies: Homo sapiens.
The subject of test [4] is HEK293. Kind of test: cells. The class given is functional, cell-based. The following applies: Homo sapiens. The source holds these as a separate data set.
Test [5] deals with HEK293. Briefly: inhibition of NOD1-driven NF-kB reporter – cell-based, luminescence, uHTS, primary screen (AID 1578). The class given is functional. To be noted: Homo sapiens.
The subject of test [6] is HEK293. Kind of test: NOD2 signaling inhibitors in MDP-stimulated cells, cell-based, uHTS, luminescence (AID 2001). The format is functional. The following applies: Homo sapiens.
Test [7] has as its target T1, Sentrin-specific protease 8 (Homo sapiens, UniProt Q96LD8).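 Also: luminescence read-out of SENP8 inhibition, dose-response confirmation following an ultra-high-throughput screen.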
T1 sequence (Q96LD8 whole entry): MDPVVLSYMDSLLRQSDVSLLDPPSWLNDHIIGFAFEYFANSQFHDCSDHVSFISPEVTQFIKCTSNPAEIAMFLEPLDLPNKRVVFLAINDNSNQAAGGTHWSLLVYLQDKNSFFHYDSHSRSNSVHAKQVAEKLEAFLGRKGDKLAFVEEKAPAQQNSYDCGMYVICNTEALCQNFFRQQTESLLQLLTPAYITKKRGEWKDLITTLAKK
The format is functional.

The next test has as its target T2, Caspase-3 (Homo sapiens, UniProt P42574).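 Also: Dose-response selectivity test against caspase-3 for candidate inhibitors of sentrin-specific proteases (SENPs).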
T2 sequence (P42574 whole entry): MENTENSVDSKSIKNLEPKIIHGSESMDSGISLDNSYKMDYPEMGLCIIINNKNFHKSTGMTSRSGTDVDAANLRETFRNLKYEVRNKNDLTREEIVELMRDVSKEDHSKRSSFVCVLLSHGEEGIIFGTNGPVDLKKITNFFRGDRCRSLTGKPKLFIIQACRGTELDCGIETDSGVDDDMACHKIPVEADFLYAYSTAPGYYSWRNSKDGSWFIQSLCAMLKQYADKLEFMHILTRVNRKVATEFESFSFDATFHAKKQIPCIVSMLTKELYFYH
The class given is functional.

Test [8] concerns the target T3, Sentrin-specific protease 6 (Homo sapiens, UniProt Q9GZR1).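 Also: Luminescence-based dose-response confirmatory assay of SENP6 inhibition, following up an ultra-high-throughput screen.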
T3 sequence (Q9GZR1 whole entry): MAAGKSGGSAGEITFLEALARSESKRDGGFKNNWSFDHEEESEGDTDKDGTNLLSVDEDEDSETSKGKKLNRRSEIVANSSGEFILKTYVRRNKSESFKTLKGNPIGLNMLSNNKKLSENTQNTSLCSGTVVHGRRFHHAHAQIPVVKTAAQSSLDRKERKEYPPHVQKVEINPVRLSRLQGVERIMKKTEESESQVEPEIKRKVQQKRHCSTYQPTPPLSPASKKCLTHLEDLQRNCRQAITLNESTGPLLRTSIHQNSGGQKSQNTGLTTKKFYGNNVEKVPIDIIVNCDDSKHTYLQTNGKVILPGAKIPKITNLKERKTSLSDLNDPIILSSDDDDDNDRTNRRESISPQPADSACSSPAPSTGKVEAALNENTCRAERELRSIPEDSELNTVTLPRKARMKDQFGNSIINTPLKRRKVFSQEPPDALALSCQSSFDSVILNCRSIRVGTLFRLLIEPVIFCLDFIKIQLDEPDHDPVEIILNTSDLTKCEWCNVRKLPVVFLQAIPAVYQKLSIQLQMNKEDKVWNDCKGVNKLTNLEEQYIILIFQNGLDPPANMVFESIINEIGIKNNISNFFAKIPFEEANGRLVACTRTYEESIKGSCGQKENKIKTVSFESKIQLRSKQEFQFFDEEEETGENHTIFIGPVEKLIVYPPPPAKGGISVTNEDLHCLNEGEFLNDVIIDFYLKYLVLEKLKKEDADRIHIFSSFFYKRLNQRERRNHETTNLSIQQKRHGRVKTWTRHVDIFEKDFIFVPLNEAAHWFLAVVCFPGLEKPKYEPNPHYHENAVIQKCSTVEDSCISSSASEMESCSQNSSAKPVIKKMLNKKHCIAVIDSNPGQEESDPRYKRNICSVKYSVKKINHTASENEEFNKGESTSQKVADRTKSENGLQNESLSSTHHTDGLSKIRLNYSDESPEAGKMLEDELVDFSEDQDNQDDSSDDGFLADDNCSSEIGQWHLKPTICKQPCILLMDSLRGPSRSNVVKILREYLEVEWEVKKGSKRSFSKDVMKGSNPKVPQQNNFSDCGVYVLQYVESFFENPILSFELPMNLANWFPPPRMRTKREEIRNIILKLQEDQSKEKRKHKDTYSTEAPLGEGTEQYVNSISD
The class given is functional.

For test [9], the target named is T4, Sentrin-specific protease 7 (Homo sapiens, UniProt Q9BQF6).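 Also: Luminescence-based dose-response confirmation of ultra-high-throughput screening hits, measuring inhibition of SENP7.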
T4 sequence (Q9BQF6 whole entry): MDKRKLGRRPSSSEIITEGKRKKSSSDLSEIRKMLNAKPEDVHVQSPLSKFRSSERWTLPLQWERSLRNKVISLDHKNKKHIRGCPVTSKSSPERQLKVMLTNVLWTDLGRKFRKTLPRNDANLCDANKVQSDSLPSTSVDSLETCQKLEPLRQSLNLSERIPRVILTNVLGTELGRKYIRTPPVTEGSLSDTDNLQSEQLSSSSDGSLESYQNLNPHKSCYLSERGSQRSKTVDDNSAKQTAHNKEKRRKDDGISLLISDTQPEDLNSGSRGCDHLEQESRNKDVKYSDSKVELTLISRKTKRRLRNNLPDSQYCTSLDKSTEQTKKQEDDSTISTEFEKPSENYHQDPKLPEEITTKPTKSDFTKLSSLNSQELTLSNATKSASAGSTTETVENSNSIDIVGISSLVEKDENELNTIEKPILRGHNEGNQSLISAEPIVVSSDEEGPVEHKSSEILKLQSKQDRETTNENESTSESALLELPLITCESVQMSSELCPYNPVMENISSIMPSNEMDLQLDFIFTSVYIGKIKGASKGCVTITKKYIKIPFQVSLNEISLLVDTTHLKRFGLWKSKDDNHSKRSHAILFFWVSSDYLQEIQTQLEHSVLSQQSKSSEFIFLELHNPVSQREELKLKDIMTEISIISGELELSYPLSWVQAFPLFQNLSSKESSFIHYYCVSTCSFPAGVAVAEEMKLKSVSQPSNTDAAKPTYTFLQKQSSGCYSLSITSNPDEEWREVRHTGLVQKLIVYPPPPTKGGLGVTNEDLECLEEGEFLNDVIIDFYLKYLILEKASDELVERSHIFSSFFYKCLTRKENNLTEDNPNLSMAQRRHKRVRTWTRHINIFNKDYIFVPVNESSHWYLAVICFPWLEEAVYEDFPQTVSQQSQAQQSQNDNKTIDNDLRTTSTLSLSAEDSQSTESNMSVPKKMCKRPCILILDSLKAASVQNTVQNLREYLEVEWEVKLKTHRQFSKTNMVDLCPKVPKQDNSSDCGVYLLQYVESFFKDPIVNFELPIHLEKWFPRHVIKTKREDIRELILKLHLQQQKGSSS
The class given is functional.

For the next test, the target named is Cytochrome P450 3A4 (Homo sapiens, UniProt P08684).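 Also: CYP3A4 tested as one member of a cytochrome P450 panel screen.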
Sequence of Cytochrome P450 3A4 (P08684 whole entry): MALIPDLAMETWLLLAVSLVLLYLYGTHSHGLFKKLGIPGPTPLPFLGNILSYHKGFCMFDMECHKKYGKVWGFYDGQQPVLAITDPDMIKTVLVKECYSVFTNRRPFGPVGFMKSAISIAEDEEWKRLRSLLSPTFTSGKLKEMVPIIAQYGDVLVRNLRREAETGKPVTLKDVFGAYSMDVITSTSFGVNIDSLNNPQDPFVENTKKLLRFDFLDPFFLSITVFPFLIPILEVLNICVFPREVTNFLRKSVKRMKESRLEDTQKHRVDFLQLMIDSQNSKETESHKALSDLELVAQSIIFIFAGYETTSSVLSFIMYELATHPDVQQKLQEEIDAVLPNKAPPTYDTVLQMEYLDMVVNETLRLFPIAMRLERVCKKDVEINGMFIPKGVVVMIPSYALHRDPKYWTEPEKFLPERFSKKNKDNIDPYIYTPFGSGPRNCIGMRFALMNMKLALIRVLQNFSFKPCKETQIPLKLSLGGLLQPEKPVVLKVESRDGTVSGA
A further test deals with Cytochrome P450 2C9 (Homo sapiens, UniProt P11712).
Sequence of Cytochrome P450 2C9 (P11712 whole entry): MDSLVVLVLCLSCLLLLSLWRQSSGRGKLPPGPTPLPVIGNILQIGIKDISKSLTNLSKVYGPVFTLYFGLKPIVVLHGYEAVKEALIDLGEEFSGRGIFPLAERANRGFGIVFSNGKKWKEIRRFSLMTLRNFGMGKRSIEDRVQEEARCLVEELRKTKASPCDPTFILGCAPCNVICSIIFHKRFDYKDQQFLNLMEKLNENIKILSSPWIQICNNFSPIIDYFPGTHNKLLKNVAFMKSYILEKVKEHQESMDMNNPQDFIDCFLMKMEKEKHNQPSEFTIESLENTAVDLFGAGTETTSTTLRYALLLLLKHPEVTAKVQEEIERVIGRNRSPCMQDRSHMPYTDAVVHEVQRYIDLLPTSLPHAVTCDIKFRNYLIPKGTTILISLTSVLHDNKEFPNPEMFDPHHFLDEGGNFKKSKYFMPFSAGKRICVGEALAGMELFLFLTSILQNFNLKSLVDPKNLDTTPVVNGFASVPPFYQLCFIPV
The next test has as its target Cytochrome P450 2C19 (Homo sapiens, UniProt P33261). Briefly: Cytochrome panel assay with activity outcomes. Panel member name: p450-cyp2c19 Compounds with AC50 equal or less than 10 uM are considered active. The class given is functional. To be noted: read-out: AC50.
For test [10], the system named is Streptococcus sp. 'group A'. Kind of test: Streptococcus pyogenes SK(-)GAS viability under kanamycin – luminescence, BacTiterGlo, confirmation, counter-screen for streptokinase expression inhibitor project, dose response (AID 1900). The class given is functional, organism-based.
For the next test, the system named is INS1. Kind of test: INS-1E survival protection against cytokine death – cell-based, luminescence, retest, dose response (AID 449756).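 Also: cell death triggered by IL-1 beta plus TNF-alpha plus IFN-gamma mixture; protective hits raise ATP signal compared with cytokine alone wells.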 The format is functional. The following applies: Rattus norvegicus.
A further test concerns Streptococcus. Briefly: GAS UMAA2166 growth inhibition – luminescence, BacTiterGlo, counter-screen for streptokinase expression inhibitor project, dose response (AID 1915).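 Also: potency for reduction of bacterial viability or growth.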 The class given is functional, organism-based. On the technique in general: The purpose of a counterscreen is to sort out artefacts and off-target activity.
The next test has as its target T5, Streptokinase A (Streptococcus pyogenes serotype M1, UniProt P10520).
T5 sequence (P10520 whole entry): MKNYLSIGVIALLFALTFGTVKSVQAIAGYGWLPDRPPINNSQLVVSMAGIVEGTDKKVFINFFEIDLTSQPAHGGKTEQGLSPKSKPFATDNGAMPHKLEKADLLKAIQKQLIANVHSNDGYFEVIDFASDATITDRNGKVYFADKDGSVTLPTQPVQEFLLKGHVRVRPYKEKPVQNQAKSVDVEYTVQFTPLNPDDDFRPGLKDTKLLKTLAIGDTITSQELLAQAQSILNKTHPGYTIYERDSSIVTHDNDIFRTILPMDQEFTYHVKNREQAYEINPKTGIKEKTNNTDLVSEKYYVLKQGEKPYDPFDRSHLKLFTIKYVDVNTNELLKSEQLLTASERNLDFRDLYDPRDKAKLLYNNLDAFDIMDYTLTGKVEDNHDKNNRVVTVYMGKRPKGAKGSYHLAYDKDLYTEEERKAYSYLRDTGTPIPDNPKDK
Kind of test: viability-normalized secreted streptokinase activity reduction – plasminogen activation absorbance, OD405, dose response (AID 1914).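 Also: secreted streptokinase activity via plasminogen activation per viability signal from cell pellet.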 The format is functional, Streptococcus pyogenes M1 GAS.

Test [11] deals with T6, High affinity choline transporter 1 (Homo sapiens, UniProt Q9GZV3).
T6 sequence (Q9GZV3 whole entry): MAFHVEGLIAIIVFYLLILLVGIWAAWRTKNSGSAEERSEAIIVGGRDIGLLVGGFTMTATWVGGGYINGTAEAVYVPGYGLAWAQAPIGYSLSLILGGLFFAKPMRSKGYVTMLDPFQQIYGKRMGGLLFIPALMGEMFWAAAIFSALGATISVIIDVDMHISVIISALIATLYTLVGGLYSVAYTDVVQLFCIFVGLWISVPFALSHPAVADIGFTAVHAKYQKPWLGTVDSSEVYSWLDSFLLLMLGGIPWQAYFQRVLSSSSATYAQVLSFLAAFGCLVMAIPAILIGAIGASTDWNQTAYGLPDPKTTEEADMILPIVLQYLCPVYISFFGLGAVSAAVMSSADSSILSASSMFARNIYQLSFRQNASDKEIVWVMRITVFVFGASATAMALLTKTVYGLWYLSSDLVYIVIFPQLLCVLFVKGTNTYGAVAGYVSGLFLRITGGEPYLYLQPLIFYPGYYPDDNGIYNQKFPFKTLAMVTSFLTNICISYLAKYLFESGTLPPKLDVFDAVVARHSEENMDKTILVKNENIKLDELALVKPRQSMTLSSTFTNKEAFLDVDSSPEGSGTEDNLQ
Kind of test: human choline transporter blockers, potency – cell-based, 5-point CRC, membrane potential dye, dose response (AID 504840). The format is functional.

The nature of test [12]: microbe, parasite or virus in culture. The class given is functional. To be noted: Mycobacterium tuberculosis.
Another test concerns the target Nonstructural protein 1 (Influenza A virus, UniProt Q194T2). The format is functional, Influenza A virus (A/California/07/2009(H1N1)).

Consider 11 compounds from ChEMBL document CHEMBL1201862, “PubChem BioAssay data set” (2004).

Active and inactive are the calls of the source.

Sequence of Cytochrome P450 2C19 (P33261 whole entry): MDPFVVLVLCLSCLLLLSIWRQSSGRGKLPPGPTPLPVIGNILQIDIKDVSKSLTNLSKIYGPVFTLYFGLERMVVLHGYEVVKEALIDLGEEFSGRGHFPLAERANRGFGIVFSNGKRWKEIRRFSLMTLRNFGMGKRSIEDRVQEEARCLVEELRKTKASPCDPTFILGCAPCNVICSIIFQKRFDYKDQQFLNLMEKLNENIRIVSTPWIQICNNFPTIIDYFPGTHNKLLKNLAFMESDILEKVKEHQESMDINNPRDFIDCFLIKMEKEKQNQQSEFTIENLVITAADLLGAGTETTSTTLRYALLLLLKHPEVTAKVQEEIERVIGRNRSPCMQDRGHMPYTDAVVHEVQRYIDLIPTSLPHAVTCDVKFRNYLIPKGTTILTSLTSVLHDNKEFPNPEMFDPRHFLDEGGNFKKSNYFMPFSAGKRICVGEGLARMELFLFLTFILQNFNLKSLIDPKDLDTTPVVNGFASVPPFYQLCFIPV
Sequence of Nonstructural protein 1 (Q194T2 whole entry): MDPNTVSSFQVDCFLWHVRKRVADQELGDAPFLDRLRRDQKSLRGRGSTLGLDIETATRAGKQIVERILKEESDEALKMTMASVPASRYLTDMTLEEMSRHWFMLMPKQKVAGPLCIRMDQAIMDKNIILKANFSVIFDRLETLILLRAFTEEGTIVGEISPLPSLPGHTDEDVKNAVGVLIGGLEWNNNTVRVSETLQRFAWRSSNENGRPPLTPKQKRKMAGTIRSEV

One may read the AC50 as the concentration at which the activity in the assay is half-maximal. For `CC(=O)Nc1ccc(C=NNc2nnc(NN=Cc3ccc(NC(C)=O)cc3)c3ccccc23)cc1`, the AC50 with HEK293 [1] was 0.932 µM (active).

Turning to `COc1ccc(N2Cc3ccccc3C2=O)cc1`, the AC50 in the test with HEK293 [1] is 12.5 µM (active).

One may read the IC50 as the concentration that gives 50% inhibition. As usually defined, the EC50 is the concentration needed to bring the measured effect to its halfway point. In the case of `O=C(Nc1ccc(S(=O)(=O)N2CCOCC2)cc1)c1cc(-c2cc(Cl)ccc2O)n[nH]1`, the CC50 in the test with Vero was 10.9 µM (active). The AC50 in [2] was 0.962 µM (active). For the same compound, the values for the IC50 with HEK293 [3], in the test with HEK293 [4] and with HEK293 [6] were 7.45 µM (active), 6.05 µM (active) and 6.8 µM (active), respectively. In addition, the EC50 in the test with HEK293 [5] was > 20 µM (inactive).

Consider `CCOc1ccc(/N=C/c2c(O)oc3ccccc3c2=O)cc1`, for which the IC50 in test [7] was > 100 µM (inactive); on Caspase-3, 32.8 µM (active); in test [8] it was 26.2 µM (active); in test [9], 6.32 µM (active).

Consider `CCc1ccc(C(=O)COC(=O)c2cccc(N3C(=O)c4c(C)nc5ccccc5c4C3=O)c2)cc1`, for which the AC50 was 16.7 µM (active) in the test with HEK293 [1], 22.4 µM (inconclusive) at Cytochrome P450 3A4, 3.16 µM (inconclusive) at Cytochrome P450 2C9 and 7.08 µM (inconclusive) on Cytochrome P450 2C19.

For `COc1ccc(NC(=O)c2ccc(OCC3CCCO3)cc2)cc1Cl` (centres undefined), the IC50 is > 100 µM (inactive) in [7], 15.6 µM (active) at Caspase-3, > 100 µM (inactive) in [8] and 5.56 µM (active) in test [9].

`NC(=O)c1ccccc1N/C=C/C(=O)c1cccs1`: in the test with HEK293 [1], the AC50 is 22.5 µM (active).

For `O=C(Nc1ccc([N+](=O)[O-])cc1)Nc1ccc(Cl)cc1F`, the EC50 in test [10] was > 150 µM (not active); in the test with HEK293 [5], 18.7 µM (active); in the test with Streptococcus, > 150 µM (not active); at Streptokinase A, > 150 µM (not active). Further, the IC50 is > 20 µM (inactive) in the test with HEK293 [3], 3.12 µM (active) in the test with HEK293 [4] and 3.26 µM (inactive) in the test on HEK293 [6]. Further, the AC50 in the test on INS1 is 3.73 µM (active).

As for `Cc1ccc(C(=O)CSc2nnc(-c3ccco3)n2C)cc1`, the IC50 in [11] was 9.62 µM (active).

Regarding `O=C(Nc1nc2ccc(F)cc2s1)C1=COCCO1`, the AC50 in the test with HEK293 [1] is 2.38 µM (active).

For the compound `N#CC(C#N)=c1ccc2c(c1)N1C3=C(CCCC3)CC3CCCCC31N=2` (centres undefined), the CC50 in [12] is 29.5 µM (active). In addition, the 50% inhibitory concentration (IC50) on Nonstructural protein 1 is 11.2 µM (active); in test [11], 11 µM (active).
